pIC50: −log10 of the molar value. *1 amine or outer side, *2 acyl side, *3 side chain or, on linkers, in order; H or OH if unused. Where a SMILES comes first, the peptide text is derived from it. Bridges are numbered along the chain shown (N, C = ends). Roman numbers before positions name the chains, in order. Side-chain parts run from the residue outwards. [ ]: non-standard residue; d: D form. The star is where a group is joined. C20 diacid = O=C(O)CCCCCCCCCCCCCCCCCCC(=O)*; C18 diacid = O=C(O)CCCCCCCCCCCCCCCCC(=O)*; γGlu = O=C(O)[C@H](CCC(=O)[*:2])N[*:1]; Desaminohistidyl = O=C(CCc1c[nH]cn1)*; Ac4c = NC1(C(=O)O)CCC1; AEEA = NCCOCCOCC(=O)O; Aib = CC(C)(N)C(=O)O
molecular target: T1, human GLP-1 receptor (Homo sapiens, UniProt P43220); assay: Assay (II)(a): GLP-1 receptor binding, [125I]GLP-1 displacement, SPA on BHK membranes; details: displacement of [125I]GLP-1, membranes with human GLP-1 receptor; read-out: IC50 GLP-1R
T1 construct: expressed in transfected cells; host or cells: membranes of BHK cells, parent line BHKTS13, clone FCW467-12A
T1 sequence (P43220 24-463): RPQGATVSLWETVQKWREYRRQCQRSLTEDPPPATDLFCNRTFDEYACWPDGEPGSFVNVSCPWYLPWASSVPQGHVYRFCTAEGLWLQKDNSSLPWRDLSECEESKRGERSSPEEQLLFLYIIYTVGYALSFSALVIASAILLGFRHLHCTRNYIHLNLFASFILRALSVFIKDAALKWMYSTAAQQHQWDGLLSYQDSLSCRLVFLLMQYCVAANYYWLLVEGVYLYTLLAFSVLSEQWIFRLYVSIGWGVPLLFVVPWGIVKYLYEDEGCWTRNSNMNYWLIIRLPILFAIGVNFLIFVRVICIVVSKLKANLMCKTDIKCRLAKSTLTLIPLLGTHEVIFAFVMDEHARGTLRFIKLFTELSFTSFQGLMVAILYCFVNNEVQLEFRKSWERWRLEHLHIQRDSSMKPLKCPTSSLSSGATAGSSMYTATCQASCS
Procedure: Assay (II): GLP-1 and Glucagon Receptor Binding The purpose of this assay is to test the in vitro receptor binding activity of the GLP-1 derivatives of the invention. (a) GLP-1 Receptor Binding The GLP-1 receptor (GLP-1R) binding is a measure of the affinity of a derivative for the human GLP-1 receptor. The GLP-1 receptor binding of each derivatives were determined with competitive binding, displacing [^125I]GLP-1 bound to GLP-1 receptors expressed in cell membranes associated with wheat germ agglutinin (WGA) scintillation proximity assay (SPA) beads. Each derivative was added in a series of concentrations to isolated membranes comprising the human GLP-1 receptor and displacement of the labelled radioligand was monitored. The receptor binding was reported as the concentration at which half of the labelled ligand is displaced from the receptor, the IC^50 value. The following chemicals were used in the assay: MEM w/o phenol red (Gibco 11880-028), Pen/strep (Invitrogen 15140-122), G418 (Invitrogen 10131-027), 1 M Hepes (Gibco 15630), EDTA (Invitrogen 15575-038), PBS (Invitrogen 14190-094), fetal calf serum (Invitrogen 16140-071), EGTA, MgCl2 (Merck 1.05832.1000), Tween 20 (Amresco 0850C335), SPA particles (wheat germ agglutinin (WGA) SPA beads, Perkin Elmer RPNQ0001), [125I]-GLP-1]-(7-36)NH2 (produced in-house), OptiPlate™-96 (Perkin Elmer). Buffer 1 consisted of 20 mM Na-HEPES plus 10 mM EDTA and pH was adjusted to 7.4. Buffer 2 consisted of 20 mM Na-HEPES plus 0.1 mM EDTA and pH was adjusted to 7.4. Assay buffer consisted of 50 mM HEPES supplemented with 5 mM EGTA, 5 mM MgCl2, 0.005% Tween 20 and pH was adjusted to 7.4. A 0.02% albumin stock consisted of HSA dissolved at 0.02% (w/v) in assay buffer. The cells used in this assay (clone FCW467-12A) were BHK cells with BHKTS13 as a parent cell line. The cells express the human GLP-1 receptor. The cells were grown at 5% CO2 in DMEM, 10% fetal calf serum, 1% Pen/Strep (Penicillin/Streptomycin) and 1.0 mg/ml of the selection marker G418. To make a membrane preparation the cells were grown to approximately 80% confluence. The cells were washed twice in phosphate-buffered saline and harvested. The cells were pelleted using a brief centrifugation and the cell pellet was kept on ice. The cell pellet was homogenised with ULTRA-THURRAX dispersing instrument for 20-30 seconds in a suitable amount of buffer 1 (e.g., 10 ml). The homogenate was centrifuged for 15 minutes. The pellet was re-suspended (homogenised) in 10 ml buffer 2 and centrifuged. This step was repeated once more. The resulting pellet was re-suspended in buffer 2 and the protein concentration was determined. The membranes were aliquoted and stored at minus 80° C. • 1. For the receptor binding assay 50 μl of the assay buffer was added to each well of an assay plate. • 2. Test compounds were serially diluted to give the following concentrations: 8×10EE-7 M, 8×10EE-8 M, 8×10EE-9 M, 8×10EE-10 M, 8×10EE-11 M, 8×10EE-12 M and 8×10EE-13 M. Twenty-five μl were added to appropriate wells in the assay plate. • 3. Cell membrane aliquots were thawed and diluted to their working concentration. Fifty μl were added to each well in the assay plate. • 4. WGA SPA beads were suspended in assay buffer at 20 mg/ml. The suspension was diluted to 10 mg/ml in assay buffer just prior to addition to the assay plate. Fifty μl were added to each well in the assay plate. • 5. The incubation was started by adding 25 μl of 480 pM solution of [125I]-GLP-1]-(7-36)NH2 to each well of the assay plate. A 25 μl aliquot was reserved for measuring total counts/well. • 6. The assay plate was incubated for 2 h at 30° C. • 7. The assay plate was centrifuged for 10 min. • 8. The assay plate was read in a Perkin Elmer TopCount NXT instrument. Calculations The data from the TopCount instrument were transferred to GraphPad Prism software. The software averaged the values for the replicates and performed a non-linear regression. IC50 values were calculated by the software and reported in nM. […]

pIC50 | SMILES
10.00 | CC[C@H](C)[C@H](NC(=O)[C@H](Cc1ccccc1)NC(=O)[C@H](CCC(=O)O)NC(=O)[C@H](CCCNC(=N)N)NC(=O)[C@H](C)NC(=O)[C@H](C)NC(=O)[C@H](CCC(N)=O)NC(=O)[C@H](CCC(=O)O)NC(=O)[C@H](CCC(=O)O)NC(=O)[C@H](CC(C)C)NC(=O)[C@H](Cc1ccc(O)cc1)NC(=O)[C@H](CCCCN)NC(=O)[C@H](CO)NC(=O)[C@@H](NC(=O)[C@H](CC(=O)O)NC(=O)[C@H](CO)NC(=O)[C@@H](NC(=O)[C@H](Cc1ccccc1)NC(=O)[C@@H](NC(=O)CNC(=O)[C@H](Cc1c[nH]cn1)NC(=O)C1(NC(=O)CCc2c[nH]cn2)CCC1)[C@@H](C)O)[C@@H](C)O)C(C)C)C(=O)N[C@@H](C)C(=O)N[C@@H](Cc1c[nH]c2ccccc12)C(=O)N[C@@H](CC(C)C)C(=O)N[C@@H](CC(C)C)C(=O)N[C@@H](CCCCN)C(=O)N[C@@H](CCCCNC(=O)CNC(=O)[C@H](CO)NC(=O)[C@H](CCC(=O)O)NC(=O)CNC(=O)[C@H](CO)NC(=O)CC[C@H](NC(=O)CC[C@H](NC(=O)CCCCCCCCCCCCCCCCC(=O)O)C(=O)O)C(=O)O)C(N)=O [Example 2, N^ε35-[2-[[(2S)-2-[[(2S)-4-carboxy-2-[[2-[[(2S)-2-[[(4S)-4-carboxy-4-[[(4S)-4-carboxy-4-(17-carboxyheptadecanoylamino)butanoyl]amino]butanoyl]amino]-3-hydroxypropanoyl]amino]acetyl]amino]butanoyl]amino]-3-hydroxypropanoyl]amino]acetyl]-[Imp7,Acb8,His9,Lys18,Glu22,Arg26,Leu33,Lys35]-GLP-1-(7-35)-peptide amide] (I: Desaminohistidyl-[Ac4c]HGTFTSDVSKYLEEQAAREFIAWLLKK-NH2 / II: {C18 diacid-γGlu-γGlu}-SGESG; amide I:28-II:C)
9.05 | CC[C@H](C)[C@H](NC(=O)[C@H](Cc1ccccc1)NC(=O)[C@H](CCC(=O)O)NC(=O)[C@H](CCCNC(=N)N)NC(=O)[C@H](C)NC(=O)[C@H](C)NC(=O)[C@H](CCCNC(=N)N)NC(=O)CNC(=O)[C@H](CCC(=O)O)NC(=O)[C@H](CC(C)C)NC(=O)[C@H](Cc1ccc(O)cc1)NC(=O)[C@H](CCCCN)NC(=O)[C@H](CO)NC(=O)[C@@H](NC(=O)[C@H](CC(=O)O)NC(=O)[C@H](CO)NC(=O)[C@@H](NC(=O)[C@H](Cc1ccccc1)NC(=O)[C@@H](NC(=O)CNC(=O)[C@H](Cc1c[nH]cn1)NC(=O)[C@H](C)NC(=O)CCc1c[nH]cn1)[C@@H](C)O)[C@@H](C)O)C(C)C)C(=O)N[C@@H](C)C(=O)N[C@@H](Cc1c[nH]c2ccccc12)C(=O)N[C@@H](CC(C)C)C(=O)N[C@@H](CC(C)C)C(=O)N[C@@H](CCCCNC(=O)COCCOCCNC(=O)COCCOCCNC(=O)CC[C@H](NC(=O)CC[C@H](NC(=O)CC[C@H](NC(=O)CCCCCCCCCCCCCCCCC(=O)O)C(=O)O)C(=O)O)C(=O)O)C(=O)NCC(=O)NCC(=O)NCC(=O)O [Example 11, N^ε34-[2-[2-[2-[[2-[2-[2-[[(4S)-4-carboxy-4-[[(4S)-4-carboxy-4-[[(4S)-4-carboxy-4-(17-carboxyheptadecanoylamino)butanoyl]amino]butanoyl]amino]butanoyl]amino]ethoxy]ethoxy]acetyl]amino]ethoxy]ethoxy]acetyl]-[Imp7,His9,Lys18,Arg23,Arg26,Leu33,Gly36]-GLP-1-(7-37)-peptide] (Desaminohistidyl-AHGTFTSDVSKYLEGRAAREFIAWLLK([AEEA-AEEA-γGlu-γGlu-γGlu-C18 diacid])GGG-OH)
9.70 | CC[C@H](C)[C@H](NC(=O)[C@H](Cc1ccccc1)NC(=O)[C@H](CCC(=O)O)NC(=O)[C@H](CCCNC(=N)N)NC(=O)[C@H](C)NC(=O)[C@H](C)NC(=O)[C@H](CCC(N)=O)NC(=O)[C@H](CCCCNC(=O)CC[C@H](NC(=O)CC[C@H](NC(=O)COCCOCCNC(=O)COCCOCCNC(=O)CC[C@H](NC(=O)CCCCCCCCCCCCCCCCC(=O)O)C(=O)O)C(=O)O)C(=O)O)NC(=O)[C@H](CCC(=O)O)NC(=O)[C@H](CC(C)C)NC(=O)[C@H](Cc1ccc(O)cc1)NC(=O)[C@H](CCCCN)NC(=O)[C@H](CO)NC(=O)[C@@H](NC(=O)[C@H](CC(=O)O)NC(=O)[C@H](CO)NC(=O)[C@@H](NC(=O)[C@H](Cc1ccccc1)NC(=O)[C@@H](NC(=O)CNC(=O)[C@H](Cc1c[nH]cn1)NC(=O)C1(NC(=O)CCc2c[nH]cn2)CCC1)[C@@H](C)O)[C@@H](C)O)C(C)C)C(=O)N[C@@H](C)C(=O)N[C@@H](Cc1c[nH]c2ccccc12)C(=O)N[C@@H](CC(C)C)C(=O)N[C@@H](CC(C)C)C(=O)N[C@@H](CCCCN)C(=O)N[C@H](C(N)=O)[C@@H](C)O [Example 33, N^ε22-[(4S)-4-carboxy-4-[[(4S)-4-carboxy-4-[[2-[2-[2-[[2-[2-[2-[[(4S)-4-carboxy-4-(17-carboxyheptadecanoylamino)butanoyl]amino]ethoxy]ethoxy]acetyl]amino]ethoxy]ethoxy]acetyl]amino]butanoyl]amino]butanoyl]-[Imp7,Acb8,His9,Lys18,Lys22,Arg26,Leu33,Thr35]-GLP-1-(7-35)-peptide amide] (Desaminohistidyl-[Ac4c]HGTFTSDVSKYLEK([γGlu-γGlu-AEEA-AEEA-γGlu-C18 diacid])QAAREFIAWLLKT-NH2)
9.40 | CC[C@H](C)[C@H](NC(=O)[C@H](Cc1ccccc1)NC(=O)[C@H](CCC(=O)O)NC(=O)[C@H](CCCNC(=N)N)NC(=O)[C@H](C)NC(=O)[C@H](C)NC(=O)[C@H](CCC(N)=O)NC(=O)[C@H](CCC(=O)O)NC(=O)[C@H](CCC(=O)O)NC(=O)[C@H](CC(C)C)NC(=O)[C@H](Cc1ccc(O)cc1)NC(=O)[C@H](CCCCN)NC(=O)[C@H](CO)NC(=O)[C@@H](NC(=O)[C@H](CC(=O)O)NC(=O)[C@H](CO)NC(=O)[C@@H](NC(=O)[C@H](Cc1ccccc1)NC(=O)[C@@H](NC(=O)CNC(=O)[C@H](Cc1c[nH]cn1)NC(=O)C(C)(C)NC(=O)CCc1c[nH]cn1)[C@@H](C)O)[C@@H](C)O)C(C)C)C(=O)N[C@@H](C)C(=O)N[C@@H](Cc1c[nH]c2ccccc12)C(=O)N[C@@H](CC(C)C)C(=O)N[C@@H](CC(C)C)C(=O)N[C@@H](CCCCNC(=O)COCCOCCNC(=O)COCCOCCNC(=O)CC[C@H](NC(=O)CC[C@H](NC(=O)CCCCCCCCCCCCCCCCCCC(=O)O)C(=O)O)C(=O)O)C(=O)N[C@H](C(N)=O)[C@@H](C)O [Example 40, N^ε34-[2-[2-[2-[[2-[2-[2-[[(4S)-4-carboxy-4-[[(4S)-4-carboxy-4-(19-carboxynonadecanoylamino)butanoyl]amino]butanoyl]amino]ethoxy]ethoxy]acetyl]amino]ethoxy]ethoxy]acetyl]-[Imp7,Aib8,His9,Lys18,Glu22,Arg26,Leu33,Thr35]-GLP-1-(7-35)-peptide amide] (Desaminohistidyl-[Aib]HGTFTSDVSKYLEEQAAREFIAWLLK([AEEA-AEEA-γGlu-γGlu-C20 diacid])T-NH2)

Reference: US9988430B2, “Stable GLP-1 based GLP-1/glucagon receptor co-agonists” (Novo Nordisk A/S, priority 2014, dated 2018)
